Tested on: urinary phosphate
Assay: In vivo phosphate binding: urinary phosphate levels in rats fed test compound in diet
Set-up: species or system Sprague Dawley (SD) rats
Settings: SD rats, urine days 5 and 6, cellulose control
Procedure: House male Sprague Dawley (SD) rats were used for the experiments. The rats were placed singly in wire-bottom cages, fed with Purina 5002 diet, and allowed to acclimate for at least 5 days prior to experimental use.
To establish baseline phosphorus excretion, the rats were placed in metabolic cages for 48 hours. Their urine was collected and its phosphorus content analyzed with a Hitachi analyzer to determine phosphorus excretion in mg/day. Any rats with outlying values were excluded; and the remainder of the rats was distributed into groups.
Purina 5002 was used as the standard diet. The compound being tested was mixed with Purina 5002 to result in a final concentration by weight as noted in the table. Cellulose at 0.5% by weight was used as a negative control. For each rat, 200 g of diet was prepared.
Each rat was weighed and placed on the standard diet. After 4 days the standard diet was replaced with the treatment diet (or control diet for the control group). On days 5 and 6, urine samples from the rats at 24 hours (+/−30 minutes) were collected and analyzed. The test rats were again weighed, and any weight loss or gain was calculated. Any remaining food was also weighed to calculate the amount of food consumed per day. A change in phosphorus excretion relative to baseline and cellulose negative control was calculated using Excel program.

Row | SMILES | % Urinary Phosphate Relative to that of Control Animals (2.38 % of diet) [%] | % Urinary Phosphate Relative to that of Control Animals (0.20 % of diet) [%] | % Urinary Phosphate Relative to that of Control Animals (0.25 % of diet) [%] | % Urinary Phosphate Relative to that of Control Animals (0.30 % of diet) [%] | % Urinary Phosphate Relative to that of Control Animals (0.40 % of diet) [%] | % Urinary Phosphate Relative to that of Control Animals (1.00 % of diet) [%]
1 | [Cl-].[Cl-].[Mg+2] [MgCl2] | 57.0 |  |  |  |  | 
2 | [Mg+2].[O-2] [MgO] |  | 61.6 | 69.3 | 54.8 | 26.1 | 3.6

Reference: US20090162314A1, “Magnesium-Containing Polymers for the Treatment of Hyperphosphatemia” (priority 2005, published 2009)
